US10828288B2, “Hydrazone derivatives for the treatment of cancer” (RUTGERS, THE STATE UNIVERSITY OF NEW JERSEY, priority 2015, dated 2020)

Key:
H460 (p53-WT) = experiment: Cell growth inhibition assay, H460; type: cell-based, human; details: three day assay, H460, FIG. 1
H1299 (p53-null) = experiment: Cell growth inhibition assay, H1299; type: cell-based, human; details: three day assay, H1299, FIG. 1
[1] = tested on: HEK293 (non-cancer, p53-WT) cells; experiment: Intracellular [Zn2+]free imaging with FluoZin-3-AM, HEK293; type: cell-based; details: for increase of intracellular [Zn2+]free (FZ3-AM fluorescence): HEK293, complete media, confocal microscopy
Protocol: To minimize the potential for Zn^2+ contamination and contributions from poorly defined elements in complete media (e.g. FBS), cells were treated and imaged in Ca^2+ and Mg^2+-free Earle's Balanced Salt Solution supplemented with 10 mM HEPES pH 7.4 (EBSS/H (−)Ca/Mg). Excess ZnCl2 with the Zn^2+ ionophore pyrithione (PYR) was used as a positive control. Excess membrane-permeable Zn^2+ chelator N,N,N′,N′-tetrakis(2-pyridylmethyl)ethane-1,2-diamine (TPEN) was used as a negative control.
To normalize for differential dye loading, cells were then sequentially treated with excess PYR/ZnCl2, imaged, treated with TPEN, and imaged again. PYR/ZnCl2 and TPEN served to saturate and apoize the intracellular FZ3, respectively.
(§1) [formula] where Ji is the initial flux, ΔF/Δt is the slope of the fit line, Fmax is RZ-3 fluorescence in the presence of saturating Zn^2+ and 1% TritonX-100, Fmin is RZ-3 fluorescence in the presence of excess EDTA and 1% TritonX-100, [RZ3] is the concentration of encapsulated RZ-3, and SA/Vol is the surface area to volume ratio calculated assuming hollow spheres of the mean diameter determined by DLS. Intracellular [Zn^2+]free Imaging TOV112D or HEK293 cells (40,000 cells/well) were plated on either 8-well BD Falcon chambered culture slides (Corning Life Sciences) or 8-chambered #1.5 Nunc Lab-Tek II chambered coverglasses (Thermo Scientific) treated with poly-L-lysine. After 48 h, cells were washed 2×5 m in serum-free media and incubated with 1 μM FZ3-AM for 40 m at 37° C. Cells were then washed 2×5 m in either EBSS/H (−)Ca/Mg or phenol-red free DMEM+10% FBS containing the indicated treatments for 20 m before imaging. For nuclear colocalization, 1 μg/mL Hoechst 33342 was also included. Cells were imaged using a Zeiss LSM510 META NLO confocal microscope equipped with 37° C. environmental control chamber. FZ3 and Hoechst 33342 were excited at 488 nm (argon laser) and 790 nm (Chameleon Ti:sapphire laser), respectively. To determine the kinetics of fluorescence change, each background-subtracted image in the time-lapse series was integrated in ImageJ and normalized to the integrated fluorescence of the first frame after treatment. For quantification of intracellular [Zn^2+]free, each cell was analyzed in the treated, 50 μM PYR/ZnCl2 (1:1), and 100 μM TPEN images by taking the mean fluorescence of an ROI inside the cell subtracted by an ROI immediately outside the cell measured in ImageJ. The [Zn^2+]free for each cell was then calculated by Eqn 2:
[formula] […] To minimize the effects of outliers the lowest and highest 5% of cells in each series were rejected, and the remaining values averaged to give the value from that experiment. The number of cells analyzed in each trial ranged from 54-163. For nuclear colocalization, treated, PYR/ZnCl2, and TPEN treated images costained with Hoechst 33342 were aligned and each pixel subjected to Eqn. 2 in MATLAB (MathWorks).

[2] = Liposome import assay (RZ-3 fluorescence); type: physicochemical; details: for shuttling of Zn2+ into liposomes: external [Zn2+]free 10 μM; for change of RZ-3 fluorescence with reversed [Zn2+]free gradient: large excess of EDTA outside the liposomes, ZMC1 added subsequently
Protocol: DOPC-liposomes were prepared by film rehydration and extrusion followed by gel filtration and diluted to an OD600=0.06 in buffer. The size distribution of the liposomes was determined by dynamic light scattering (DLS) using a Malvern Zetasizer Nano ZS. Fluorescence measurements were taken on a Horiba Fluoromax-4 spectrofluorimeter in a 5×5 mm quartz cuvette with λex/λcm=550/572 nm for RZ-3 and 490/515 nm for calcein. Initial Zn^2+ import/export was quantified by fitting the first 10-30 s of data after each treatment to a line and converted to units of flux using the following Eqn 1:
as §1, with “2: […]” for “2:”

ability to cross liposomal (or cellular) membranes [2]	Structure (SMILES)	cell growth inhibition of p53 wildtype cell line (H460 (p53-WT))	cell growth inhibition of p53 null cell line (H1299 (p53-null))	increase of intracellular [Zn2+]free (FZ3-AM fluorescence) [1]	shuttling of Zn2+ into liposomes [2]	change of RZ-3 fluorescence with reversed [Zn2+]free gradient [2]	further results
–	C/C(=N\Nc1nc2ccccc2o1)c1ccccn1 [Example 2, (E)-2-(2-(1-(pyridin-2-yl)ethylidene)hydrazinyl)benzo[d]oxazole]	undisturbed	undisturbed	–	–	–	–
–	C/C(=N\NC(=O)N1CCC1)c1ccccn1 [Example A6]	–	–	did not	shuttled Zn^2+ into the liposomes	–	–
impermeable	O=C(O)CN(CCN(CC(=O)O)CC(=O)O)CC(=O)O [EDTA]	–	–	–	–	did not cause a significant decrease	–
crossed the liposomal membranes	C/C(=N\NC(=S)N1CCC1)c1ccccn1 [ZMC1]	–	–	increased	–	time dependent decrease	steady-state intracellular [Zn2+]free ([1]; HEK293, 1 μM ZMC1 and 0.5 μM ZnCl2 in EBSS/H (−)Ca/Mg): 18.1 ± 4.7 nM; increase of intracellular [Zn2+]free, compound alone ([1]; HEK293, EBSS/H (−)Ca/Mg, ZMC1 alone without ZnCl2): neither cell type showed an increase; increase of intracellular [Zn2+]free, with ZnCl2 ([1]; HEK293, EBSS/H (−)Ca/Mg, ZMC1 and ZnCl2, two ZnCl2 concentrations): time dependent increase
–	C/C(=N\Nc1nc2ccccc2s1)c1ccccn1 [Example 1, (E)-2-(2-(1-(pyridin-2-yl)ethylidene)hydrazinyl)benzo[d]thiazole]	undisturbed	undisturbed	–	–	–	–

Structure (SMILES)	ability to cross liposomal (or cellular) membranes [2]	cell growth inhibition of p53 wildtype cell line (H460 (p53-WT))	cell growth inhibition of p53 null cell line (H1299 (p53-null))	increase of intracellular [Zn2+]free (FZ3-AM fluorescence) [1]	shuttling of Zn2+ into liposomes [2]	change of RZ-3 fluorescence with reversed [Zn2+]free gradient [2]	further results
O=C(O)CN(CC(=O)O)CC(=O)O [NTA]	cannot cross	–	–	did not	did not	–	–
